Test results from patent US20240300948A1, “Heterocyclic Compounds As Kinase Inhibitors” (Incyte Corporation, priority 2023, published 2024).

Columns and labels:
[1] = target: T1, catalytic domain (JH1, amino acids 826-1132) of human JAK2 (Homo sapiens, UniProt O60674); experiment: JAK2 LanthaScreen JH1 binding assay; details: 50 nM tracer, 2 hours at 25° C., read-out: JH1 BIND IC50
T1 construct: catalytic domain (JH1, amino acids 826-1132) of human JAK2; FLAG (N); purchased Carna Biosciences 08-445-20N; host or cells: baculovirus expression system
T1 sequence (O60674 826-1132): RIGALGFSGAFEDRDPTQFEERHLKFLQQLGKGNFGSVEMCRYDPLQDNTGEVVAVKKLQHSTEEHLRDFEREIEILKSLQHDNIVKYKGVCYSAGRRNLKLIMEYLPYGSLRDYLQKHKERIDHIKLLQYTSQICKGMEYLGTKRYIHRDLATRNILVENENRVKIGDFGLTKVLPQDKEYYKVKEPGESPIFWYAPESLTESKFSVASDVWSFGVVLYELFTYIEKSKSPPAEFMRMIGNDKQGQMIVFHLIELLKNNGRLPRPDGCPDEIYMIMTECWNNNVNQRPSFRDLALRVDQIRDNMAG
Description: Example A. JAK2 LanthaScreen […] Binding Assay
JAK2 JH1 binding assay utilizes catalytic domain (JH1, amino acids 826-1132) of human JAK2 expressed as N-terminal FLAG-tagged, biotinylated protein in a baculovirus expression system (Carna Biosciences, Product #08-445-20N). The assay was conducted in black 384-well polystyrene plates in a final reaction volume of 20 μL. JAK2 JH1 (1.5 nM) was incubated with compounds (100 nL serially diluted in DMSO) in the presence of 50 nM fluorescent JAK2-JH1 tracer and 0.5 nM Streptavidin-Tb cryptate (Cisbio Part #610SATLB) in assay buffer (50 mM Tris, pH=7.5, 10 mM MgCl2, 0.01% Brij-35, 0.1% BSA, 1 mM EGTA, 5% Glycerol and 5 mM DTT). Non-specific binding was accessed in the presence of 2 mM ATP. After incubation for 2 hours at 25° C., LanthaScreen signals were read on a PHERAstar FS plate reader (BMG LABTECH). Data was analyzed with IDBS XLfit and GraphPad Prism 5.0 software using a four parameter dose response curve to determine IC50 for each compound.

[2] = target: T2, pseudo-kinase domain (JH2, amino-acids 536-812 with 3 surface mutations W659A, W777A, F794H) of human V617F mutant JAK2 (Homo sapiens, UniProt O60674, F794H/V617F/W659A/W777A); experiment: JAK2 LanthaScreen JH2-V617F binding assay; details: 50 nM tracer, 1 hour at 25° C., read-out: JH2 BIND V617F IC50
T2 construct: pseudo-kinase domain (JH2, amino-acids 536-812 with 3 surface mutations W659A, W777A, F794H); His (C); Avi (biotinylated) (C); purchased BPS Bioscience 79498; host or cells: baculovirus expression system
T2 sequence (O60674 536-812 V617F/W659A/W777A/F794H): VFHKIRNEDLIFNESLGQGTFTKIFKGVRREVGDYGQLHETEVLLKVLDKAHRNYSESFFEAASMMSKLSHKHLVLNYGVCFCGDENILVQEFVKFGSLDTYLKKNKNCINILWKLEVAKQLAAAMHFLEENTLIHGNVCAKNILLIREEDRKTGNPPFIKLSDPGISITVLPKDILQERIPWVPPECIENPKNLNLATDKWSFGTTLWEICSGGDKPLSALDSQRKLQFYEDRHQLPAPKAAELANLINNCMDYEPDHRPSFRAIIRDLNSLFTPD
Description: Example C. JAK2 LanthaScreen JH2-V617F Binding Assay
(§1) JAK2 JH2-V617F binding assay utilizes pseudo-kinase domain (JH2, amino-acids 536-812 with 3 surface mutations W659A, W777A, F794H) of human V617F mutant JAK2 expressed as C-terminal His-Avi-tagged, biotinylated protein in a baculovirus expression system (BPS Bioscience, Catalog #79498). The assay was conducted in black 384-well polystyrene plates in a final reaction volume of 20 μL. JAK2 JH2-V617F (0.26 nM) was incubated with compounds (100 nL serially diluted in DMSO) in the presence of 50 nM Fluorescent JAK2-JH2 Tracer (MedChem Express Catalog #HY-102055) and 0.25 nM Streptavidin-Tb cryptate (Cisbio Part #610SATLB) in assay buffer (50 mM Tris, pH=7.5, 10 mM MgCl2, 0.01% Brij-35, 0.1% BSA, 1 mM EGTA, 5% Glycerol and 5 mM DTT). Non-specific binding was accessed in the presence of 2 mM ATP. After incubation for 1 hour at 25° C., LanthaScreen signals were read on a PHERAstar FS plate reader (BMG LABTECH). Data was analyzed with IDBS XLfit and GraphPad Prism 5.0 software using a four parameter dose response curve to determine IC50 for each compound.

[3] = target: T3, pseudo-kinase domain (JH2, amino-acids 536-812 with 3 surface mutations W659A, W777A, F794H) of human Wild Type JAK2 (Homo sapiens, UniProt O60674, F794H/W659A/W777A); experiment: JAK2 LanthaScreen JH2-WT binding assay; details: 50 nM tracer, 1 hour at 25° C., read-out: JH2 BIND WT IC50
T3 construct: pseudo-kinase domain (JH2, amino-acids 536-812 with 3 surface mutations W659A, W777A, F794H); His (C); Avi (biotinylated) (C); purchased BPS Bioscience 79463; host or cells: baculovirus expression system
T3 sequence (O60674 536-812 W659A/W777A/F794H): as the sequence (O60674 536-812 V617F/W659A/W777A/F794H) above, with F82V counted along it
Description: Example B. JAK2 LanthaScreen JH2-WT Binding Assay
as §1, with “JH2-WT” for “JH2-V617F”, “Wild Type” for “V617F mutant”, “#79463).” for “#79498).”, “JH2-WT (0.145” for “JH2-V617F (0.26”

| SMILES | IC50 [1] [nM] | IC50 [2] [nM] | IC50 [3] [nM] |
| --- | --- | --- | --- |
| CC(C)n1ncc2cc(-c3c(-c4cnn(C)c4)[nH]c4ncc5c(c34)N([C@H]3CC[C@@H]3NS(C)(=O)=O)C(=O)NC5)ccc21 (racemic) [Example 7, N-(trans-2-(9-(1-Isopropyl-1H-indazol-5-yl)-8-(1-methyl-1H-pyrazol-4-yl)-2-oxo-2,3,4,7-tetrahydro-1H-pyrrolo[3′,2′:5,6]pyrido[4,3-d]pyrimidin-1-yl)cyclobutyl) methan esulfonamide] | > 1000 | 10 to 100 | 10 to 100 |
| CC(C)n1ncc2cc(-c3c(-c4cnn(C)c4)[nH]c4ncc5c(c34)N([C@H]3CC[C@@H]3NC(=O)NCC(F)F)C(=O)NC5)ccc21 (racemic) [Example 8, N-(2,2-Difluoroethyl)-3-(trans-2-(9-(1-isopropyl-1H-indazol-5-yl)-8-(1-methyl-1H-pyrazol-4-yl)-2-oxo-2,3,4,7-tetrahydro-1H-pyrrolo[3′,2′:5,6]pyrido[4,3-d]pyrimidin-1-yl)cyclobutyl)urea] | > 1000 | 100 to 500 | 10 to 100 |
| COC(=O)N[C@@H]1CC[C@@H](N2C(=O)NCc3cnc4[nH]c(-c5cnn(C)c5)c(-c5ccc(OC6CCOC6)cc5)c4c32)C1 (mixture of isomers) [Example 27, Methyl ((1R,3R)-3-(8-(1-methyl-1H-pyrazol-4-yl)-2-oxo-9-(4-((tetrahydrofuran-3-yl)oxy)phenyl)-2,3,4,7-tetrahydro-1H-pyrrolo[3′,2′:5,6]pyrido[4,3-d]pyrimidin-1-yl)cyclopentyl)ca rbamate] | 100 to 500 | 10 to 100 | 10 to 100 |
| COC(=O)N[C@H]1C[C@H](N2C(=O)NC(C)c3cnc4[nH]c(-c5cnn(C)c5)c(-c5ccc6c(cnn6C(C)C)c5)c4c32)C1 (mixture of isomers) [Example 38, Methyl ((1r,3r)-3-(9-(1-isopropyl-1H-indazol-5-yl)-4-methyl-8-(1-methyl-1H-pyrazol-4-yl)-2-oxo-2,3,4,7-tetrahydro-1H-pyrrolo[3′,2′:5,6]pyrido[4,3-d]pyrimidin-1-yl)cyclobutyl)carbamate] | > 1000 | 10 to 100 | 10 to 100 |
| COC(=O)N[C@H]1C[C@H](N2C(=O)NCc3cnc4[nH]c(-c5cnn(C)c5)c(-c5ccc6c(cnn6C(C)C)c5)c4c32)C1 [Example 1, Methyl ((1r,3r)-3-(9-(1-isopropyl-1H-indazol-5-yl)-8-(1-methyl-1H-pyrazol-4-yl)-2-oxo-2,3,4,7-tetrahydro-1H-pyrrolo[3′,2′:5,6]pyrido[4,3-d]pyrimidin-1-yl)cyclobutyl)carbamate] | 100 to 500 | ≤ 10 | ≤ 10 |
| CC(=O)N[C@H]1C[C@H](N2C(=O)NCc3cnc4[nH]c(-c5cnn(C)c5)c(-c5ccc6c(cnn6C(C)C)c5)c4c32)C1 [Example 2, N-((1r,3r)-3-(9-(1-Isopropyl-1H-indazol-5-yl)-8-(1-methyl-1H-pyrazol-4-yl)-2-oxo-2,3,4,7-tetrahydro-1H-pyrrolo[3′,2′:5,6]pyrido[4,3-d]pyrimidin-1-yl)cyclobutyl) acetamide] | > 1000 | 10 to 100 | 10 to 100 |
| CC(C)n1ncc2cc(-c3c(-c4cnn(C)c4)[nH]c4ncc5c(c34)N([C@H]3C[C@H](NS(C)(=O)=O)C3)C(=O)NC5)ccc21 [Example 3, N-((1r,3r)-3-(9-(1-Isopropyl-1H-indazol-5-yl)-8-(1-methyl-1H-pyrazol-4-yl)-2-oxo-2,3,4,7-tetrahydro-1H-pyrrolo[3′,2′:5,6]pyrido[4,3-d]pyrimidin-1-yl)cyclobutyl) methan esulfonamide] | 10 to 100 | ≤ 10 | ≤ 10 |
| COC(=O)N[C@H]1C[C@@H](N2C(=O)NCc3cnc4[nH]c(-c5cnn(C)c5)c(-c5ccc6c(cnn6C(C)C)c5)c4c32)C1 [Example 4, Methyl ((1s,3s)-3-(9-(1-isopropyl-1H-indazol-5-yl)-8-(1-methyl-1H-pyrazol-4-yl)-2-oxo-2,3,4,7-tetrahydro-1H-pyrrolo[3′,2′:5,6]pyrido[4,3-d]pyrimidin-1-yl)cyclobutyl) carbamate] | > 1000 | 10 to 100 | 10 to 100 |
| CC(=O)N[C@H]1C[C@@H](N2C(=O)NCc3cnc4[nH]c(-c5cnn(C)c5)c(-c5ccc6c(cnn6C(C)C)c5)c4c32)C1 [Example 5, N-((1s,3s)-3-(9-(1-Isopropyl-1H-indazol-5-yl)-8-(1-methyl-1H-pyrazol-4-yl)-2-oxo-2,3,4,7-tetrahydro-1H-pyrrolo[3′,2′:5,6]pyrido[4,3-d]pyrimidin-1-yl)cyclobutyl) acetamide] | 500 to 1000 | 10 to 100 | 10 to 100 |
| CC(C)n1ncc2cc(-c3c(-c4cnn(C)c4)[nH]c4ncc5c(c34)N([C@H]3C[C@@H](NS(C)(=O)=O)C3)C(=O)NC5)ccc21 [Example 6, N-((1s,3s)-3-(9-(1-Isopropyl-1H-indazol-5-yl)-8-(1-methyl-1H-pyrazol-4-yl)-2-oxo-2,3,4,7-tetrahydro-1H-pyrrolo[3′,2′:5,6]pyrido[4,3-d]pyrimidin-1-yl)cyclobutyl) methanesulfonamide] | 100 to 500 | 10 to 100 | ≤ 10 |
| CC(=O)N[C@@H]1CC[C@@H](N2C(=O)NCc3cnc4[nH]c(-c5cnn(C)c5)c(-c5ccc6c(cnn6C(C)C)c5)c4c32)C1 [Example 9, N-((1R,3R)-3-(9-(1-Isopropyl-1H-indazol-5-yl)-8-(1-methyl-1H-pyrazol-4-yl)-2-oxo-2,3,4,7-tetrahydro-1H-pyrrolo[3′,2′:5,6]pyrido[4,3-d]pyrimidin-1-yl)cyclopentyl) acetamide] | > 1000 | 10 to 100 | 10 to 100 |
| CC(C)n1ncc2cc(-c3c(-c4cnn(C)c4)[nH]c4ncc5c(c34)N([C@@H]3CC[C@@H](NS(C)(=O)=O)C3)C(=O)NC5)ccc21 [Example 10, N-((1R,3R)-3-(9-(1-Isopropyl-1H-indazol-5-yl)-8-(1-methyl-1H-pyrazol-4-yl)-2-oxo-2,3,4,7-tetrahydro-1H-pyrrolo[3′,2′:5,6]pyrido[4,3-d]pyrimidin-1-yl)cyclopentyl) methanesulfonamide] | > 1000 | 100 to 500 | 10 to 100 |
| CC(C)n1ncc2cc(-c3c(-c4cnn(C)c4)[nH]c4ncc5c(c34)N([C@@H]3CC[C@@H](NC(=O)C4CC4)C3)C(=O)NC5)ccc21 [Example 11, N-((1R,3R)-3-(9-(1-Isopropyl-1H-indazol-5-yl)-8-(1-methyl-1H-pyrazol-4-yl)-2-oxo-2,3,4,7-tetrahydro-1H-pyrrolo[3′,2′:5,6]pyrido[4,3-d]pyrimidin-1-yl)cyclopentyl) cyclopropanecarboxamide] | > 1000 | 10 to 100 | 10 to 100 |
